US9169482B2, “Method for synthesizing cDNA” (TAKARA BIO INC., priority 2010, dated 2015)

Molecular target: T1, DNaseI (Bos taurus, UniProt P00639)
T1 construct: purchased TAKARA BIO INC
Experiment: Degradation of mouse genomic DNA with DNaseI in reaction solutions of Table 3, agarose gel electrophoresis (Example 2)
Type: biochemical
Details: 5 U DNaseI, 200 ng mouse genomic DNA
Method: In order to construct a reaction composition completely inhibiting endoDNase activity, six kinds of 20 μL-reaction solutions (Reaction Solutions 1 to 6) containing 5 U DNaseI (TAKARA BIO INC.), 200 ng mouse genomic DNA, and the components as listed in Table 3 were prepared. In addition, six kinds of 20 μL-reaction solutions having the same compositions except that DNaseI was not contained were prepared. These reaction solutions were incubated at 37° C. for 15 minutes, and thereafter incubated at 85° C. for 5 seconds. Next, each of the reaction solutions was subjected to agarose gel electrophoresis, thereby confirming degradation of mouse genomic DNA with DNaseI.
It could be confirmed from this matter that DNaseI activity was inhibited in Reaction Solutions 3 and 4. […] It is shown from this matter that adjustment of the Mg concentration can further inhibit DNaseI activity other than the addition of KCl and (NH4)2SO4 or an increase in the DTT concentration.

T1 sequence (P00639 23-282): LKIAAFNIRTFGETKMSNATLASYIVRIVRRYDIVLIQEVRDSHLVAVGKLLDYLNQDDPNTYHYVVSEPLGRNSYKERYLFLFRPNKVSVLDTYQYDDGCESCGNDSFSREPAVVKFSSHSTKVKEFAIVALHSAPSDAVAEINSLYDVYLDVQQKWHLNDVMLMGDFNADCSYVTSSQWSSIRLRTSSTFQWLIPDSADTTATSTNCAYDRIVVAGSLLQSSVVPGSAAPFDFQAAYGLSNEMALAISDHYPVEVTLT

N.N.O=S(=O)(O)O [(NH4)2SO4, ammonium sulfate]
Inhibition of DNaseI activity: inhibited DNaseI activity in a concentration-dependent manner
